The subject of one test is hNaV1.8/β3. The test is described as follows: Whole-cell automated patch-clamp, peak current at hNaV1.8. In kind it is cell-based, human. As to conditions: 10 μM; 5 min incubation; QPatch-16; holding −90 mV, 50 ms pulse to +10 mV every 20 s; 0.1% BSA; mean ± SEM. The protocol:
(§1) Human Embryonic Kidney (HEK) 293 cells stably expressing human NaV1.7/β1 (SB Drug Discovery, Glasgow, UK) were cultured in Minimum Essential Medium (MEM) supplemented with 10% fetal bovine serum (FBS), 2 mM L-glutamine, and the selection antibiotics G-418 (0.6 mg/mL) and blasticidin (4 μg/mL), as recommended by the manufacturer. Chinese Hamster Ovary (CHO) cells stably expressing human NaV1.8/β3 in a tetracycline-inducible system (ChanTest, Cleveland, OH, USA) were cultured in MEM supplemented with 10% FBS and 2 mM L-glutamine. Expression of hNaV1.8 was induced by the addition of tetracycline (1 μg/mL) for 48–72 h prior to assays. HEK293 cells stably expressing rat transient receptor potential vanilloid 1 (TRPV1) were cultured in Dulbecco’s Modified Eagle Medium (DMEM) containing 10% FBS under selection with hygromycin B (100 μg/mL), generated as previously described. Cells were grown in an incubator at 37 °C with 5% CO2 and passaged every 3–4 days (at 70%–80% confluency) using TrypLE Express (Thermo Fisher Scientific, Scoresby, VIC, Australia).
(§2) Whole-cell patch-clamp experiments in NaV1.7-HEK cells and NaV1.8-CHO cells were performed on a QPatch-16 automated electrophysiology platform (Sophion Bioscience, Ballerup, Denmark) as previously described. […]
(§3) Data were plotted and analysed using GraphPad Prism, version 8.2.0. […]

The target in another test is T1, rTRPV1 (Rattus norvegicus, UniProt O35433).
T1 construct: expressed in transfected cells
The test is described as follows: Calcium responses in TRPV1-HEK cells (FLIPR). The format is cell-based.

Test [1] addresses T2, hNaV1.7/β1 (Homo sapiens, UniProt Q15858). The test is described as follows: Voltage dependence of activation at hNaV1.7 (conductance-voltage curves, patch-clamp). The format is cell-based. The settings on record: 1 μM, 5 min incubation; holding −90 mV, 500 ms steps −110 to +55 mV in 5 mV increments; Boltzmann fit; n = 3–6 cells per data point. The protocol: as §1, §2, §3
(In general: Patch clamp records ionic current or voltage across a cell membrane.)

Test [2] has as its target T2, hNaV1.7/β1. Nature of the test: Whole-cell automated patch-clamp, peak current at hNaV1.7. In kind it is cell-based. The protocol: as §1
(§4) Whole-cell patch-clamp experiments in NaV1.7-HEK cells and NaV1.8-CHO cells were performed on a QPatch-16 automated electrophysiology platform (Sophion Bioscience, Ballerup, Denmark) as previously described. The extracellular solution contained in mM: NaCl 140, KCl 4, CaCl2 2, MgCl2 1, HEPES 10 and glucose 10; pH 7.4; osmolarity 305 mOsm. The intracellular solution contained in mM: CsF 140, EGTA/CsOH 1/5, HEPES 10 and NaCl 10; pH 7.3 with CsOH; osmolarity 320 mOsm. Concentration–response curves were acquired using a holding potential of −90 mV and a 50 ms pulse to −20 mV (for NaV1.7) or +10 mV (for NaV1.8) every 20 s (0.05 Hz). Peptides were diluted in extracellular solution with 0.1% BSA and each peptide concentration was incubated for 5 min. Peak current was normalized to buffer control. The time constant of fast inactivation (τ) was computed by fitting the current decay traces with a single exponential function using the QPatch Assay Software 5.6 (Sophion). […]
as §3

Test [3] concerns the target T2, hNaV1.7/β1. The test is described as follows: Time constant of fast inactivation (τ) at hNaV1.7 (patch-clamp). As to conditions: holding −90 mV, 50 ms pulse to −20 mV, n = 4 cells per data point. In kind it is cell-based. The protocol: as §1, §4, §3

SMILES strings stand for the structures. Entries after “also recorded” stand apart in the source; their conditions may differ. Bridge positions count the residues as written; N and C are the ends. Peptide text beside a SMILES is read from it.

The term IC50 denotes the concentration that gives 50% inhibition. By EC50 is commonly meant the concentration that produces a half-maximal response.

T2 sequence (Q07699 19-218): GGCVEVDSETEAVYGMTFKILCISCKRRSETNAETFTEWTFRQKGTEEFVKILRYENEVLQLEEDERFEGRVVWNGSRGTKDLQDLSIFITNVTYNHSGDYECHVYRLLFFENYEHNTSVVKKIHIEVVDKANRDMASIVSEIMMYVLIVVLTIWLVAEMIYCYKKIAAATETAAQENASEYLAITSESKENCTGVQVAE
T2 sequence (Q15858 whole entry): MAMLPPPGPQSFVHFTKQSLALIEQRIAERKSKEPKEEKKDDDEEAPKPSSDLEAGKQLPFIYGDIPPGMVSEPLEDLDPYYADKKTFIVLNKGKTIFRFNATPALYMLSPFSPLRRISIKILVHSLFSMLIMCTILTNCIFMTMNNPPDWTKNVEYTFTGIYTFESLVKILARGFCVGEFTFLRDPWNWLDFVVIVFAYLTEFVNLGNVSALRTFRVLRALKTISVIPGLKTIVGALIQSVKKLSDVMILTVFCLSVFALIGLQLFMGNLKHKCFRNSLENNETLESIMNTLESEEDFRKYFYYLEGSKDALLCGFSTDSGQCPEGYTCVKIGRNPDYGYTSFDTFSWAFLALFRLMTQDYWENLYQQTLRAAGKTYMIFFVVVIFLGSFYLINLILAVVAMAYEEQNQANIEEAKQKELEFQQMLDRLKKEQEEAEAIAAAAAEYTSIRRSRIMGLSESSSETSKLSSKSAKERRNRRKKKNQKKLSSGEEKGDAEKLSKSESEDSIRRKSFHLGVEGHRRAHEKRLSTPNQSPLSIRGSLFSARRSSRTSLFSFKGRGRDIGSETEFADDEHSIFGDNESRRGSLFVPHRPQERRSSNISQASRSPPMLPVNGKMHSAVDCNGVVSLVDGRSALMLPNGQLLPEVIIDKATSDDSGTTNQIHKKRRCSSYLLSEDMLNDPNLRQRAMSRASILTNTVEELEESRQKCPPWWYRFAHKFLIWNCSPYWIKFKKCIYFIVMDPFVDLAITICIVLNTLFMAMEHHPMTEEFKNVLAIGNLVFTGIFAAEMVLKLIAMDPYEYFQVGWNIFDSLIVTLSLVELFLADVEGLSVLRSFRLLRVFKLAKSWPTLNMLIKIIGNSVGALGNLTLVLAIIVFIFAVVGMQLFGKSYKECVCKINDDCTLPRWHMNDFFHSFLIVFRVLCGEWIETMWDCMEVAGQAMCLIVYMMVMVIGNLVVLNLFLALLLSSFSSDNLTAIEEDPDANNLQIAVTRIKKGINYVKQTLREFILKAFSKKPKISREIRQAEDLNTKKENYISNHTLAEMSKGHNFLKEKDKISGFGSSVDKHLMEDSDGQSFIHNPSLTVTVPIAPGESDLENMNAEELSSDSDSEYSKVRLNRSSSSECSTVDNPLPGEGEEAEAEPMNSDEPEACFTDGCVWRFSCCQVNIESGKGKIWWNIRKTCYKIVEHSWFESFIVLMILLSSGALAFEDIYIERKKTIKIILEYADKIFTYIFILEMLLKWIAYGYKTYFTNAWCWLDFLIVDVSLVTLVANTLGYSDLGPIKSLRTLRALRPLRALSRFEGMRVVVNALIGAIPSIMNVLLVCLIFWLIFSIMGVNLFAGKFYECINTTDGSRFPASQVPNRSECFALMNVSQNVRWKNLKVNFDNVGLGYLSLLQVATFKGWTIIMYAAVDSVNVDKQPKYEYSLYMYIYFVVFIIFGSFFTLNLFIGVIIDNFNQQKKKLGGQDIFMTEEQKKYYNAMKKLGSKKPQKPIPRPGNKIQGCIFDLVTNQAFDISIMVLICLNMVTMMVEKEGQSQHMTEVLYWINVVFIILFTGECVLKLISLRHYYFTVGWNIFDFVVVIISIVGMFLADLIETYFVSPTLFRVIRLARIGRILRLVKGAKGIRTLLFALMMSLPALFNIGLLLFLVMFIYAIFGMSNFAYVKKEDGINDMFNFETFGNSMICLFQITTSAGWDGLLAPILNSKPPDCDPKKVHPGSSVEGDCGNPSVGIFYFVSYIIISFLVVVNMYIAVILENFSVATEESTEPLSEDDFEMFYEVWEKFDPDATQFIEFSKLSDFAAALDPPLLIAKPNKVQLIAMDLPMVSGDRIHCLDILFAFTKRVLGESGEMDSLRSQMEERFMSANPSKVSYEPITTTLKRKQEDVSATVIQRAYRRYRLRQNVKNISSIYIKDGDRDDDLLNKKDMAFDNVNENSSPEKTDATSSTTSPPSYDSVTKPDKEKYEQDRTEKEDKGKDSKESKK
T1 sequence (O35433 whole entry): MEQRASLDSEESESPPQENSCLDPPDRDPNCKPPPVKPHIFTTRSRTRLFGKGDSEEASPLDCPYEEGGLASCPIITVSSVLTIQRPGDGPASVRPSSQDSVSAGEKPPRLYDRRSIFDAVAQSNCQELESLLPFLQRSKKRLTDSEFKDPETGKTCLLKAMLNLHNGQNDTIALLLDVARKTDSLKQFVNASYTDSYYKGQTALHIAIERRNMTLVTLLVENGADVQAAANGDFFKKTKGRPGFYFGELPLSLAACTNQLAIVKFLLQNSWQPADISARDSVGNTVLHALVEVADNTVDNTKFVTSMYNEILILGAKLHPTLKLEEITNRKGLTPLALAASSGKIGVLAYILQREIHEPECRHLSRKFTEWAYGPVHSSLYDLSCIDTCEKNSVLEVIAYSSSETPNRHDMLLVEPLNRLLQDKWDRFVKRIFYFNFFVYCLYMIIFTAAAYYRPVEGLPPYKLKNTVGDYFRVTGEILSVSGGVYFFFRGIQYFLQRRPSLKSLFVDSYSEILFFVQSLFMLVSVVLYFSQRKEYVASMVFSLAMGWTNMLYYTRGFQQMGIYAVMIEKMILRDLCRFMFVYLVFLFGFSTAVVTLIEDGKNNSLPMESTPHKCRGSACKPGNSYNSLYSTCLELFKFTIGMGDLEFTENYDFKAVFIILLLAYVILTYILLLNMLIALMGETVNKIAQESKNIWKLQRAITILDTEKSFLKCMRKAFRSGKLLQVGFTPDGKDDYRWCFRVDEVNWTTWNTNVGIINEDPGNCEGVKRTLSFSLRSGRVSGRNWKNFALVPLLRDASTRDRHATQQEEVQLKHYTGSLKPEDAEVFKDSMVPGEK
Protocol for rTRPV1: HEK293 cells stably expressing rat transient receptor potential vanilloid 1 (TRPV1) were cultured in Dulbecco’s Modified Eagle Medium (DMEM) containing 10% FBS under selection with hygromycin B (100 μg/mL), generated as previously described [16]. Cells were grown in an incubator at 37 °C with 5% CO2 and passaged every 3–4 days (at 70%–80% confluency) using TrypLE Express (Thermo Fisher Scientific, Scoresby, VIC, Australia).
HEK cells stably expressing rTRPV1 were plated 48 h before the assay on 384-well black-walled imaging plates coated with poly D-lysine (ViewPlate-384, Perkin Elmer, Victoria, Australia) at a density of 10,000–15,000 cells/well and loaded with Calcium 4 no-wash dye (Molecular Devices) diluted in PSS and incubated for 30 min at 37 °C. […] Changes in fluorescence were assessed using the FLIPR^TETRA (excitation 470–495 nm, emission 515–575 nm) every 1 s for 300 s after the addition of compounds. Fluorescence responses were quantified by the maximum increase in fluorescence calculated using ScreenWorks 3.2.0.14.
Data were plotted and analysed using GraphPad Prism, version 8.2.0. For concentration–response curves, a four-parameter Hill equation with variable Hill coefficient was fitted to the data. Data are presented as the mean ± SEM.

As to `CSCC[C@@H]1NC(=O)[C@H](CCCCN)NC(=O)[C@@H]2CSSC[C@@H]3NC(=O)CNC(=O)CNC(=O)[C@H](CC(C)C)NC(=O)[C@H](Cc4ccccc4)NC(=O)[C@H](Cc4ccc(O)cc4)NC(=O)[C@H](CCCNC(=N)N)NC(=O)[C@@H](NC(=O)CNC(=O)CN)CSSC[C@H](NC(=O)[C@H](CSSC[C@@H](C(=O)N[C@@H](C)C(=O)N[C@@H](Cc4c[nH]c5ccccc45)C(=O)N[C@@H](CC(=O)O)C(=O)NCC(=O)N[C@H](C(=O)N[C@@H](Cc4ccccc4)C(N)=O)[C@@H](C)O)NC(=O)[C@H](Cc4ccc(O)cc4)NC(=O)[C@H](CC(N)=O)NC(=O)[C@H](CC(C)C)NC(=O)CNC1=O)NC(=O)[C@H](CC(=O)O)NC(=O)[C@H](CO)NC(=O)[C@H](Cc1c[nH]cn1)NC(=O)[C@H](CCC(=O)O)NC(=O)[C@H](CO)NC3=O)C(=O)N[C@@H](CCC(=O)O)C(=O)N[C@@H](Cc1c[nH]cn1)C(=O)N[C@@H](CC(C)C)C(=O)N[C@@H](CCCNC(=N)N)C(=O)N2` [Pme1a] (H-GGCRYFLGGCSEHSDCCEHLRCKMGLNYCAWDGTF-NH2; disulfide 3-17, 10-22, 16-29 (inferred); N-terminus assumed), the “inhibition of peak current at NaV1.8” value in the test on hNaV1.8/β3 came out at 21 ± 2%. Besides, the “activity on TRPV1” value on rTRPV1 (rTRPV1-HEK293, Calcium 4 dye, up to 30 μM, n = 3–5 wells per data point) was “no activity”. On hNaV1.7/β1 [1], the “shift of V1/2 of voltage dependence of activation (Δ)” value is “+11.6 mV”. At hNaV1.7/β1 [2] (5 min incubation per concentration, QPatch-16, holding −90 mV, 50 ms pulse to −20 mV every 20 s, 0.1% BSA, mean ± SEM, n = 3–6 cells per data point, read-out: IC50 (inhibition of NaV1.7 peak current)), the concentration for half-maximal inhibition (IC50) is 0.334 ± 0.114 µM.
For `CSCC[C@@H]1NC(=O)[C@H](Cc2ccccc2)NC(=O)[C@H](CCCCN)NC(=O)[C@H]([C@@H](C)O)NC(=O)[C@@H](NC(=O)CN)CSSC[C@@H]2NC(=O)[C@@H]3CSSC[C@@H](C(=O)NCC(=O)N[C@@H](Cc4c[nH]c5ccccc45)C(=O)N[C@@H](CC(=O)O)C(=O)NCC(=O)N[C@H](C(=O)N[C@@H](Cc4ccccc4)C(N)=O)[C@@H](C)O)NC(=O)[C@H](Cc4c[nH]c5ccccc45)NC(=O)[C@H](CCCCN)NC(=O)[C@H](Cc4ccc(O)cc4)NC(=O)[C@H](CCCCN)NC(=O)[C@H](Cc4ccc(O)cc4)NC(=O)[C@H](CSSC[C@H](NC(=O)[C@H](CO)NC(=O)CNC1=O)C(=O)N[C@@H](CCCCN)C(=O)N[C@@H]([C@@H](C)O)C(=O)N[C@@H](CC(=O)O)C(=O)N[C@@H](C)C(=O)N[C@@H](CC(=O)O)C(=O)N3)NC(=O)[C@H](CCC(=O)O)NC(=O)[C@H](CC(C)C)NC(=O)[C@H](Cc1c[nH]cn1)NC(=O)[C@H](CCC(=O)O)NC2=O` [Pme2a] (H-GCTKFMGSCKTDADCCEHLECYKYKWCGWDGTF-NH2; disulfide 2-16, 9-21, 15-27 (inferred); N-terminus assumed), the “inhibition of peak current at NaV1.8” value in the test on hNaV1.8/β3 was determined as 22 ± 4%. Moreover, the concentration giving a half-maximal response (EC50) at hNaV1.7/β1 [3] (5 min incubation, τ from single exponential fit, read-out: estimated EC50 (delay of fast inactivation)) is > 10 µM; on hNaV1.7/β1 [2] (abstract, QPatch-16, holding −90 mV, 50 ms pulse to −20 mV, read-out: EC50 as given in abstract: delays fast inactivation and inhibits NaV1.7 peak current) it was > 10 µM. The “effect on fast inactivation” value on hNaV1.7/β1 [3] is given as “concentration-dependently delaying-fast inactivation; also recorded: concentration-dependently increases the time constant of fast inactivation (τ)”. Further, the “activity at TRPV1” value on rTRPV1 (rTRPV1-HEK293, data not shown, concentration not given) is listed as “no activity”. Moreover, on hNaV1.7/β1 [2] (authors' summary in discussion), the “pharmacology at NaV1.7 (activator / inhibitor)” value is “NaV1.7 channel activator”.
Regarding `CSCC[C@@H]1NC(=O)[C@H](Cc2ccccc2)NC(=O)[C@H](CCCCN)NC(=O)[C@H]([C@@H](C)O)NC(=O)[C@@H](NC(=O)CN)CSSC[C@@H]2NC(=O)[C@@H]3CSSC[C@@H](C(=O)NCC(=O)N[C@@H](Cc4c[nH]c5ccccc45)C(=O)N[C@@H](CC(=O)O)C(=O)NCC(=O)N[C@H](C(=O)N[C@@H](Cc4ccccc4)C(N)=O)[C@@H](C)O)NC(=O)[C@H](Cc4c[nH]c5ccccc45)NC(=O)[C@H](CCCCN)NC(=O)[C@H](Cc4ccc(O)cc4)NC(=O)[C@H](CCCCN)NC(=O)[C@H](Cc4ccc(O)cc4)NC(=O)[C@H](CCCCN)NC(=O)[C@H](CSSC[C@H](NC(=O)[C@H](CO)NC(=O)CNC1=O)C(=O)N[C@@H](CCCCN)C(=O)N[C@@H]([C@@H](C)O)C(=O)N[C@@H](CC(=O)O)C(=O)N[C@@H](C)C(=O)N[C@@H](CC(=O)O)C(=O)N3)NC(=O)[C@H](CCC(=O)O)NC(=O)[C@H](CC(C)C)NC(=O)[C@H](Cc1c[nH]cn1)NC(=O)[C@H](CCC(=O)O)NC2=O` [[+22K]Pme2a] (H-GCTKFMGSCKTDADCCEHLECKYKYKWCGWDGTF-NH2; disulfide 2-16, 9-21, 15-28 (inferred); N-terminus assumed), the “effect on fast inactivation” value at hNaV1.7/β1 [3] is recorded as “removed the effect of the native peptide on fast inactivation; also recorded: without the delay in fast activation seen with the native peptide”.

The record behind these values is paper PMC7167818, “Addition of K22 Converts Spider Venom Peptide Pme2a from an Activator to an Inhibitor of NaV1.7” (Biomedicines, 2020).
